Measurements published in US10202361B2, “Pyridazinones as herbicides” (E I DU PONT DE NEMOURS AND COMPANY, priority 2014, dated 2019).
Where two headings read alike, the source gives them in different places.

Assays:
Format in all cases: in vivo
[1] = tested on: crabgrass, Large (large crabgrass, Digitaria sanguinalis); test: Test A pre-/postemergence greenhouse herbicide test; details: Digitaria sanguinalis, 240 h, 0 to 100 scale (0 no effect, 100 complete control), approx. 10 d, read-out: Plant response rating, Crabgrass, Large; for pest or weed control at 125 g/ha: 125 g ai/ha; for pest or weed control at 500 g/ha: 500 g ai/ha
Procedure, shortened: (§1)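 Seeds sown in loam–sand blend received a directed preemergence soil spray; postemergence spray was applied at the same time to plants 2–10 cm tall at one- to two-leaf stage. Compounds were in non-phytotoxic solvent with surfactant. Visual injury versus untreated controls after ~10 d in greenhouse, 0–100 scale (100 = complete control).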

[2] = tested on: foxtail, giant (giant foxtail, Setaria faberii); test: as above; details: Setaria faberi, 240 h, 0 to 100 scale (0 no effect, 100 complete control), approx. 10 d, read-out: Plant response rating, Foxtail, Giant; for pest or weed control at 125 g/ha: 125 g ai/ha; for pest or weed control at 500 g/ha: 500 g ai/ha
Procedure, shortened: as §1

[3] = tested on: morningglory (Ipomoea spp.); test: as above; details: Ipomoea, 240 h, 0 to 100 scale (0 no effect, 100 complete control), approx. 10 d, read-out: Plant response rating, Morningglory; for pest or weed control at 125 g/ha: 125 g ai/ha; for pest or weed control at 500 g/ha: 500 g ai/ha
Procedure, shortened: as §1

[4] = tested on: velvetleaf (Abutilon theophrasti); test: as above; details: Abutilon theophrasti, 240 h, 0 to 100 scale (0 no effect, 100 complete control), approx. 10 d, read-out: Plant response rating, Velvetleaf; for pest or weed control at 125 g/ha: 125 g ai/ha; for pest or weed control at 500 g/ha: 500 g ai/ha
Procedure, shortened: as §1

[5] = tested on: wheat (Triticum aestivum); test: as above; details: Triticum aestivum, 240 h, 0 to 100 scale (0 no effect, 100 complete control), approx. 10 d, read-out: Plant response rating, Wheat; for plant injury at 125 g/ha: 125 g ai/ha; for plant injury at 500 g/ha: 500 g ai/ha
Procedure, shortened: as §1

[6] = tested on: barnyardgrass (Echinochloa crus-galli); test: Test B flooded paddy test; details: Echinochloa crus-galli, 312 h, Flood, scale of 0 to 100, 0 is no effect, 100 is complete control, 13 to 15 d, read-out: Plant response rating, Barnyardgrass; for pest or weed control at 125 g/ha: 125 g ai/ha
Procedure, shortened: (§2)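 Plants were raised to the 2-leaf stage, then pots were flooded to 3 cm above the soil and the test compound was applied directly into the paddy water, with that depth held throughout. After 13 to 15 d in a greenhouse, injury was rated visually against untreated controls on a 0–100 scale (0 = no effect, 100 = complete control).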

[7] = tested on: ducksalad (Heteranthera limosa); test: Test B flooded paddy test; details: Heteranthera limosa, 312 h, Flood, scale of 0 to 100, 0 is no effect, 100 is complete control, 13 to 15 d, read-out: Plant response rating, Ducksalad; for pest or weed control at 125 g/ha: 125 g ai/ha
Procedure, shortened: as §2

rice (Oryza sativa) = test: Test B flooded paddy test; details: Oryza sativa, 312 h, Flood, scale of 0 to 100, 0 is no effect, 100 is complete control, 13 to 15 d, read-out: Plant response rating, Rice; for plant injury at 125 g/ha: 125 g ai/ha
Procedure, shortened: as §2

[8] = tested on: sedge, umbrella (small-flower umbrella sedge, Cyperus difformis); test: Test B flooded paddy test; details: Cyperus difformis, 312 h, Flood, scale of 0 to 100, 0 is no effect, 100 is complete control, 13 to 15 d, read-out: Plant response rating, Sedge, Umbrella; for pest or weed control at 125 g/ha: 125 g ai/ha
Procedure, shortened: as §2

[9] = tested on: chickweed (common chickweed, Stellaria media); test: Test C postemergence greenhouse herbicide test
Source text: At the same time, plants selected from these crop and weed species and also barley (winter barley, Hordeum vulgare), canarygrass (Phalaris minor), windgrass (Apera spica-venti), deadnettle (henbit deadnettle, Lamium amplexicaule), and chickweed (common chickweed, Stellaria media) were planted in pots containing Redi-Earth® planting medium (Scotts Company, 14111 Scottslawn Road, Marysville, Ohio 43041) comprising spaghnum peat moss, vermiculite, wetting agent and starter nutrients and treated with postemergence applications of test chemicals formulated in the same manner. Plants ranged in height from 2 to 18 cm (1- to 4-leaf stage) for postemergence treatments. Treated plants and controls were maintained in a greenhouse for 13 to 15 d, after which time all species were compared to controls and visually evaluated. Plant response ratings, summarized in Table C, are based on a scale of 0 to 100 where 0 is no effect and 100 is complete control. A dash (-) response means no test result.

Row | Compound | pest or weed control at 125 g/ha ([1]; post-emergence, Postemergence) [%] | pest or weed control at 500 g/ha ([1]; post-emergence, Postemergence) [%] | pest or weed control at 125 g/ha ([1]; pre-emergence, Preemergence) [%] | pest or weed control at 500 g/ha ([1]; pre-emergence, Preemergence) [%] | pest or weed control at 125 g/ha ([2]; post-emergence, Postemergence) [%] | pest or weed control at 500 g/ha ([2]; post-emergence, Postemergence) [%] | pest or weed control at 125 g/ha ([2]; pre-emergence, Preemergence) [%] | pest or weed control at 500 g/ha ([2]; pre-emergence, Preemergence) [%] | pest or weed control at 125 g/ha ([3]; post-emergence, Postemergence) [%] | pest or weed control at 500 g/ha ([3]; post-emergence, Postemergence) [%] | pest or weed control at 125 g/ha ([4]; post-emergence, Postemergence) [%] | pest or weed control at 500 g/ha ([4]; post-emergence, Postemergence) [%] | pest or weed control at 125 g/ha ([4]; pre-emergence, Preemergence) [%] | pest or weed control at 500 g/ha ([4]; pre-emergence, Preemergence) [%] | plant injury at 125 g/ha ([5]; post-emergence, Postemergence) [%] | plant injury at 500 g/ha ([5]; post-emergence, Postemergence) [%] | plant injury at 125 g/ha ([5]; pre-emergence, Preemergence) [%] | plant injury at 500 g/ha ([5]; pre-emergence, Preemergence) [%] | Plant response rating ([9]; 31 g ai/ha) | Plant response rating ([9]; 62 g ai/ha) | further results
1 | Cc1cc(=O)n(-c2ccc(F)cc2)nc1Oc1ccnc(C(F)(F)F)c1 [Compound 14, 2-(4-fluorophenyl)-5-methyl-6-[[2-(trifluoromethyl)-4-pyridinyl]oxy]-3 (2H)-pyridazinone] | 90 | 90 | 90 | 90 | 90 | 90 | 90 | 90 | 90 | 100 | 80 | 90 | 30 | 100 | 40 | 70 | 10 | 60 | 35 | 35 | pest or weed control at 125 g/ha ([3]; pre-emergence, Preemergence): 80%; pest or weed control at 500 g/ha ([3]; pre-emergence, Preemergence): 100%; pest or weed control at 250 g/ha ([6]; 250 g ai/ha): 40%; pest or weed control at 250 g/ha ([7]; 250 g ai/ha): 75%; plant injury at 250 g/ha (rice (Oryza sativa); 250 g ai/ha): 30%; pest or weed control at 250 g/ha ([8]; 250 g ai/ha): 75%; Plant response rating ([9]; 125 g ai/ha): 35; Plant response rating ([9]; 250 g ai/ha): 55
2 | COc1cc(=O)n(-c2ccc(C(F)(F)F)cc2)nc1Cc1ccnc(C(F)(F)F)c1 [Compound 16, 5-methoxy-2-[4-(trifluoromethyl)phenyl]-6-[[2-(trifluoromethyl)-4-pyridinyl]methyl]-3(2H)-pyridazinone] | 90 | 100 | 100 | 100 | 90 | 90 | 100 | 100 | 90 | 100 | 80 | 100 | 30 | 80 | 60 | 70 | 20 | 70 | 80 | 90 | pest or weed control at 125 g/ha ([3]; pre-emergence, Preemergence): 80%; pest or weed control at 500 g/ha ([3]; pre-emergence, Preemergence): 80%; pest or weed control at 125 g/ha [6]: 45%; pest or weed control at 125 g/ha [7]: 20%; plant injury at 125 g/ha (rice (Oryza sativa)): 35%; pest or weed control at 125 g/ha [8]: 80%; Plant response rating ([9]; 125 g ai/ha): 90; Plant response rating ([9]; 250 g ai/ha): 98
3 | COc1cc(=O)n(-c2ccc(F)cc2)nc1Cc1ccnc(C(F)(F)F)c1 [Compound 17, 2-(4-fluorophenyl)-5-methoxy-6-[[2-(trifluoromethyl)-4-pyridinyl]methyl]-3 (2H)-pyridazinone] | 90 | 90 | 100 | 100 | 90 | 90 | 100 | 100 | 100 | 100 | 100 | 100 | 100 | 100 | 60 | 70 | 20 | 50 | 70 | 85 | pest or weed control at 125 g/ha [6]: 90%; pest or weed control at 125 g/ha [7]: 90%; plant injury at 125 g/ha (rice (Oryza sativa)): 70%; pest or weed control at 125 g/ha [8]: 90%; Plant response rating ([9]; 125 g ai/ha): 85; Plant response rating ([9]; 250 g ai/ha): 95
